In series [1] the test system is male Swiss CD-1 mice. Briefly: Open field test (thigmotaxis). Type of series: in vivo. The conditions noted are these: 10 mg/kg i.p., vs saline. Here is the method: Male Swiss CD-1 mice (Janvier, Le Genest, France), weighing 30–35 g and aged 6–8 weeks, were used for HLA, thigmotaxis, CPP, and core body temperature experiments. Animals were housed under temperature-controlled conditions (22 ± 1 °C) with a 12 h light/dark cycle and had free access to food and water (standard laboratory diet, Panlab SL, Barcelona, Spain). Doses for HLA, thigmotaxis, CPP, and core body temperature experiments were calculated based on the free base form of each compound. […] Doses for HTR experiments were calculated based on the respective salt forms of the compounds.
A habituation phase was performed to reduce the stress and novelty associated with handling and injection. […] On the test day, their horizontal locomotor activity (HLA) was measured. […] HLA was video monitored for 2 h, and a specific tracking software (Smart 3.0 Panlab, Barcelona, Spain) was used to measure their total traveled distance (in cm). Center Versus Periphery: The thigmotactic effects of the test compounds, widely considered as anxiety-like effects, were assessed through an OF test. […] The time spent, in seconds, in the center (8 × 8 cm) or the periphery of the arena was monitored for 2 h (Smart 3.0 Panlab, Barcelona, Spain).

Series [2] has as its target T1, 5-HT2C (Homo sapiens, UniProt P28335).
T1 construct: expressed in transfected cells; host or cells: HEK293T (ATCC; RRID:CVCL_0063), transient transfection
T1 sequence (P28335 33-458): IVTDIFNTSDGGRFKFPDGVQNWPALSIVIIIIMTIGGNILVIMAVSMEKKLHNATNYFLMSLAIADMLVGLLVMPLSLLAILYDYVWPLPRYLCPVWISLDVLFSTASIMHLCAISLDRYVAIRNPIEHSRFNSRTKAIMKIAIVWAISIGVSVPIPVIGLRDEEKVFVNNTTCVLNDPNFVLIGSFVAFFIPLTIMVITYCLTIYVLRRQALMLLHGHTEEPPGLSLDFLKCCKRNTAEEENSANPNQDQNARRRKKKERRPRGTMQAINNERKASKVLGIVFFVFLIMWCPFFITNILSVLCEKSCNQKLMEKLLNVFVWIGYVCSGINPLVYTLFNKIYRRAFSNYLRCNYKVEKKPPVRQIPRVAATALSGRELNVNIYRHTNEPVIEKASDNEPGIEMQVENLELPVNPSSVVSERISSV
Briefly: cell-based. The conditions noted are these: for EC50: Gq dissociation BRET; for Emax: HEK-293T, read-out: Emax ± SEM, %5-HT response 5-HT2C. For orientation: BRET reads energy transfer from a luciferase to a nearby fluorophore.

Series [3] relates to male Swiss CD-1 mice. Briefly: Horizontal locomotor activity (HLA). The format is in vivo. The conditions noted are these: for effect on horizontal locomotor activity: 2.5, 10, 25 mg/kg i.p., 120 min, ceiling effect at 25 mg/kg. As to the method: (§1) Male Swiss CD-1 mice (Janvier, Le Genest, France), weighing 30–35 g and aged 6–8 weeks, were used for HLA, thigmotaxis, CPP, and core body temperature experiments. Animals were housed under temperature-controlled conditions (22 ± 1 °C) with a 12 h light/dark cycle and had free access to food and water (standard laboratory diet, Panlab SL, Barcelona, Spain). Doses for HLA, thigmotaxis, CPP, and core body temperature experiments were calculated based on the free base form of each compound. For HTR experiments, male C57BL/6J mice (6–8 weeks old) were obtained from Jackson Laboratories (Bar Harbor, ME, USA) and housed up to four per cage with a reversed light-cycle (lights on at 1900 h, off at 0700 h). Food and water were provided ad libitum, except during behavioral testing. Testing was conducted between 1000 and 1830 h. Doses for HTR experiments were calculated based on the respective salt forms of the compounds.
A habituation phase was performed to reduce the stress and novelty associated with handling and injection. During this phase, which lasted for two consecutive days, mice received an intraperitoneal (ip) saline injection and were immediately placed into a black Plexiglas Open Field (OF) arena (25 × 25 × 40 cm) under low-light conditions and white noise for 30 min. On the test day, their horizontal locomotor activity (HLA) was measured. […] HLA was video monitored for 2 h, and a specific tracking software (Smart 3.0 Panlab, Barcelona, Spain) was used to measure their total traveled distance (in cm). Center Versus Periphery: The thigmotactic effects of the test compounds, widely considered as anxiety-like effects, were assessed through an OF test. Each mouse was individually placed in the center of an open-field arena (25 cm length × 25 cm width × 40 cm height). The time spent, in seconds, in the center (8 × 8 cm) or the periphery of the arena was monitored for 2 h (Smart 3.0 Panlab, Barcelona, Spain).

Series [4] has as its target SERT (Homo sapiens, UniProt P31645). As to the kind of experiment: Release (superfusion) assay, SERT mediated [3H]5-HT efflux. The conditions noted are these: for Emax: read-out: Emax [95%-CI], SERT mediated [3H]5-HT efflux.
The test system of series [5] is male Swiss CD-1 mice. Briefly: Core body temperature. The format is in vivo. Conditions: 10 mg/kg i.p., 22 ± 1 °C and 28 ± 1 °C, compared with MDMA and SDMA. Here is the method: as §1
Changes in body temperature were measured by means of subcutaneously implanted temperature transponders (IPTT-300; Bio Medic Data Systems, Inc., DE, USA). Seven mice were used per group. […] Subsequently, core body temperature measures were taken for 1 h, every 10 min before administration, using a DAS-8007 Wireless Reader System (Bio Medic Data Systems, Inc.), to establish a baseline. […]

The target in series [6] is T2, OCT2 (Homo sapiens, UniProt O15244).
T2 sequence (O15244 1-555): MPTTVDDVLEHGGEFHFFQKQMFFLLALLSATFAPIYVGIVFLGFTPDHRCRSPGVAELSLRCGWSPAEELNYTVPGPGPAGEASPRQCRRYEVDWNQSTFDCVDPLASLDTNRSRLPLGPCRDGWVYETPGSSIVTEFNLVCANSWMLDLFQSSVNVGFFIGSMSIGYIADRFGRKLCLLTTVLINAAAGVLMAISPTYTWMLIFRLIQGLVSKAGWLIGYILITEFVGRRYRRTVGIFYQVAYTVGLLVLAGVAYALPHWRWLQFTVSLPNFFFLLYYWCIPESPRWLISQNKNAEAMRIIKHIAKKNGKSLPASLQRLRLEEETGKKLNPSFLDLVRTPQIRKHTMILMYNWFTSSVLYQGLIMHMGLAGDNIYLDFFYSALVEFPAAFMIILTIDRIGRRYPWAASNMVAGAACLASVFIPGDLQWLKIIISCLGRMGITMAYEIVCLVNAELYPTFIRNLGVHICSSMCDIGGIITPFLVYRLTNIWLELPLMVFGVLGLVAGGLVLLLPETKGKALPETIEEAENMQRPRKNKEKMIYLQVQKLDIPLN
Briefly: Uptake inhibition assay, [3H]MPP+ uptake in HEK293 cells.

The structures appear in SMILES notation.

One may read the EC50 as the concentration at which the effect is half-maximal. High values mean a less potent agent, low ones a more potent agent. For orientation: Emax means the greatest response seen or fitted, relative to the assay's reference. In general, IC50 refers to the concentration at which inhibition is half-maximal.

Chain of SERT (P31645 whole entry, the tested form may be a part): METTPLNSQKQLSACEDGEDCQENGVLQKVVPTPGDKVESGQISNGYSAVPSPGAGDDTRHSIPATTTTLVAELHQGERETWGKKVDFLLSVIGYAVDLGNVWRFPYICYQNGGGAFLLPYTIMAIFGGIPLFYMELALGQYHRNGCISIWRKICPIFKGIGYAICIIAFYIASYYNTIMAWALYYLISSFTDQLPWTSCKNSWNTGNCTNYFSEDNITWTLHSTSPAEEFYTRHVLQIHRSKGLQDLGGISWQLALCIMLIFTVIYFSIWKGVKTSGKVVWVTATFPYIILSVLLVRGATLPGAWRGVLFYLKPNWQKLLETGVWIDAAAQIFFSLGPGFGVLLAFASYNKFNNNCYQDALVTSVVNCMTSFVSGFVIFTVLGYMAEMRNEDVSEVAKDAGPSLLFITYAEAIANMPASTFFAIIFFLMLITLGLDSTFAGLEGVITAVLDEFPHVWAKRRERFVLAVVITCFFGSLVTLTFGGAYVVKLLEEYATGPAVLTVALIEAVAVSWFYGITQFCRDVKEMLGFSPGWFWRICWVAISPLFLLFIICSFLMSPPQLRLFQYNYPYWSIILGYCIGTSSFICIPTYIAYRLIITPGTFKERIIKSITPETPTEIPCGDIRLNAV

For the compound `CC(N)Cc1ccc2c(c1)SCO2` (centres unmarked) [SDA, 1-(1,3-benzoxathiol-5-yl)propan-2-amine], the “time spent in the center of the arena (thigmotaxis)” value in series [1] is “significantly decreased the time spent in the center of the arena”. In series [2], the concentration giving a half-maximal response (EC50) was 48.1 nM and the maximum response (Emax) worked out at 92.9 ± 4.9%. Also, the “efficacy at inducing locomotion, in comparison to SDMA and MDMA” value in series [3] (10 mg/kg i.p.) is listed as “significantly higher efficacy”. Also, the “effect on horizontal locomotor activity” value in series [3] was “induced hyperlocomotion”. In series [4], the EC50 was 270 nM, the “type of releaser at SERT” value is recorded as “partial releasers” and the maximum response (Emax) was found to be 70.5%. Besides, the “core body temperature changes” value in series [5] is “significantly increased and prolonged core temperature changes”. In series [6], this compound returned an IC50 of 5700 ± 600 nM.
Take `CNC(C)Cc1ccc2c(c1)SCO2` (centres unmarked) [SDMA, 1-(1,3-benzoxathiol-5-yl)-N-methylpropan-2-amine]: in series [2], the response was half-maximal at 656 nM (EC50) and the Emax came to 79 ± 5.3%. Also, the “effect on horizontal locomotor activity” value in series [3] is on record as “induced hyperlocomotion”. Further, in series [4], the midpoint of the response, the EC50, lay at 180 nM; the “type of releaser at SERT” value is on record as “partial releasers”; the maximal response (Emax) amounted to 71.5%. The compound further returned an IC50 in series [6] of 4130 ± 600 nM.

The values are drawn from publication PMC12715756 (ACS Chemical Neuroscience, 2025).
